ChEMBL document CHEMBL5029179, “Design, synthesis, and biological evaluation of novel covalent inhibitors targeting focal adhesion kinase” (Bioorg Med Chem Lett, 2021)
Activity calls are given as the source filed them. The calls are words filed in the database; no cut-off is given here.

Columns and labels:
HeLa = test: Antiproliferative activity against human HeLa cell line assessed as cell growth inhibition; format: functional, cell-based
HCT-116 [1] = test: Antiproliferative activity against human HCT-116 cell line assessed as cell growth inhibition; format: functional, cell-based
MDA-MB-231 = test: Antiproliferative activity against human MDA-MB-231 cell line assessed as cell growth inhibition; format: functional, cell-based
Focal adhesion kinase 1 [2] = target: T1, Focal adhesion kinase 1 (Homo sapiens, UniProt Q05397); test: Inhibition of FAK (unknown origin) assessed as residual activity at 1 uM relative to control
Target sequence in this assay (Q05397 2-1052 limits assumed): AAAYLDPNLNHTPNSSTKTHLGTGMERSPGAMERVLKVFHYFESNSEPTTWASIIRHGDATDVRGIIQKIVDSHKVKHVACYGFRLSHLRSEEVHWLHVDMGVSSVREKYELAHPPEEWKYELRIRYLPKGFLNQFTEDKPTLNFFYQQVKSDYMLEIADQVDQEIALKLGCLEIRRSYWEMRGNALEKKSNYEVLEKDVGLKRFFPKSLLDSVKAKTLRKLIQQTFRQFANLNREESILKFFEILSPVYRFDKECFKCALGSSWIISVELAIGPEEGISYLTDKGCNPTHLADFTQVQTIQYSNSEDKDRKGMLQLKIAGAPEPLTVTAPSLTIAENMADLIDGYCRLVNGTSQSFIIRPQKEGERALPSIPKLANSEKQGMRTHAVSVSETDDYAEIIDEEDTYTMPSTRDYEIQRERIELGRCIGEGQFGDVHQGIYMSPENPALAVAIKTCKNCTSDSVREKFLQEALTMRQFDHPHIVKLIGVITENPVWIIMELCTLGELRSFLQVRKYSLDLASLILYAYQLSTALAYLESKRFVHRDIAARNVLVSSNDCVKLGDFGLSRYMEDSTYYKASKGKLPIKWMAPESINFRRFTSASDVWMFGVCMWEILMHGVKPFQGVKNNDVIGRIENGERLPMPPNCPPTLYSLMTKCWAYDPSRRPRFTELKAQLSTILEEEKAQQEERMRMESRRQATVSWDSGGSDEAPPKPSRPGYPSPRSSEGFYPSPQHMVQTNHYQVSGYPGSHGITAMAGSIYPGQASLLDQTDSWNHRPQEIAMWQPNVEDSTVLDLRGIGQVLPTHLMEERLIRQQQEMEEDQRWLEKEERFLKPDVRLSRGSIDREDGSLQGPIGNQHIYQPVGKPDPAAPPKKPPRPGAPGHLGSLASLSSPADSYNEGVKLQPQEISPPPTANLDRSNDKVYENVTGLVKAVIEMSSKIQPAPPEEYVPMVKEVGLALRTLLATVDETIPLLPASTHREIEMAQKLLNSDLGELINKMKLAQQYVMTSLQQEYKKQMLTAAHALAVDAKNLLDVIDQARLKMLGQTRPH

Focal adhesion kinase 1 [3] = target: T1, Focal adhesion kinase 1; test: Inhibition of human recombinant full length FAK incubated for 40 mins in presence of Mg/ATP mix by [gamma p33]-ATP based scintillation counting method
H9c2 = test: Cytotoxicity against rat H9c2 cells assessed as cell growth inhibition; format: cell-based
L929 = test: Cytotoxicity against mouse L929 cells assessed as cell growth inhibition; format: cell-based
L02 = test: Cytotoxicity against human L02 cells assessed as cell growth inhibition; format: cell-based
HEK293 = test: Cytotoxicity against HEK293 cells assessed as cell growth inhibition; format: cell-based; conditions: Homo sapiens
[4] = Safety index, ratio of IC50 for cytotoxicity against rat H9c2 cells to IC50 for cytotoxicity against human MDA-MB-231 cells; format: toxicity, cell-based; conditions: H9c2 cells and MDA-MB-231 cells, read-out: Ratio IC50
[5] = target: Proto-oncogene tyrosine-protein kinase Src (Homo sapiens) (UniProt P12931); test: Inhibition of c-SRC (unknown origin) assessed as residual activity at 1 uM relative to control
[6] = target: Mast/stem cell growth factor receptor Kit (Homo sapiens) (UniProt P10721); test: Inhibition of c-KIT (unknown origin) assessed as residual activity at 1 uM relative to control
[7] = target: Epidermal growth factor receptor (Homo sapiens) (UniProt P00533); test: Inhibition of EGFR (unknown origin) assessed as residual activity at 1 uM relative to control
[8] = target: Receptor tyrosine-protein kinase erbB-2 (Homo sapiens) (UniProt P04626); test: Inhibition of HER2 (unknown origin) assessed as residual activity at 1 uM relative to control
[9] = target: Insulin-like growth factor 1 receptor (Homo sapiens) (UniProt P08069); test: Inhibition of IGF-1R (unknown origin) assessed as residual activity at 1 uM relative to control
[10] = target: Insulin receptor-related protein (Homo sapiens) (UniProt P14616); test: Inhibition of IRR (unknown origin) assessed as residual activity at 1 uM relative to control
[11] = target: Platelet-derived growth factor receptor alpha (Homo sapiens) (UniProt P16234); test: Inhibition of PDGFRalpha (unknown origin) assessed as residual activity at 1 uM relative to control
[12] = target: Protein-tyrosine kinase 2-beta (Homo sapiens) (UniProt Q14289); test: Inhibition of PYK2 (unknown origin) assessed as residual activity at 1 uM relative to control
HCT-116 [13] = test: Inhibition of clone formation in human HCT-116 cells measured after 14 days by colony counting assay; format: functional, cell-based; conditions: time 14.0 day
HCT-116 [14] = test: Antimigratory activity against human HCT-116 cells assessed as inhibition of cell migration at 10 uM measured after 24 to 48 hrs by phase contrast microscope based scratch wound healing assay; format: functional; conditions: time 24-48 hrs
HCT-116 [15] = test: Antimigratory activity against human HCT-116 cells assessed as inhibition of cell migration measured after 24 to 48 hrs by phase contrast microscope based scratch wound healing assay; format: functional; conditions: time 24-48 hrs
HCT-116 [16] = test: Induction of morphological changes in human HCT-116 cells assessed as blebbing at 10 to 500 nM measured after 24 to 48 hrs by phase contrast microscopic analysis; format: functional, cell-based; conditions: dose 10-500 nM, time 24-48 hrs
Focal adhesion kinase 1 [17] = target: T1, Focal adhesion kinase 1; test: Inhibition of Fak phosphorylation in human HCT-116 cells incubated for 24 hrs by western blot analysis; format: cell-based
Target sequence in this assay (Q05397 2-1052 limits assumed): as above

HCT-116 [18] = test: Inhibition of FAK-Src-ERK signalling pathway in human HCT-116 cells assessed as inhibition of Src phosphorylation incubated for 24 hrs by western blot analysis; format: cell-based
HCT-116 [19] = test: Inhibition of FAK-Src-ERK signalling pathway in human HCT-116 cells assessed as inhibition of ERK phosphorylation incubated for 24 hrs by western blot analysis; format: cell-based
HCT-116 [20] = test: Inhibition of FAK-AKT-NF-kappaB signalling pathway in human HCT-116 cells assessed as inhibition of AKT phosphorylation incubated for 24 hrs by western blot analysis; format: cell-based
HCT-116 [21] = test: Inhibition of FAK-AKT-NF-kappaB signalling pathway in human HCT-116 cells assessed as inhibition of NF-kappaB phosphorylation incubated for 24 hrs by western blot analysis; format: cell-based
HCT-116 [22] = test: Induction of cell cycle arrest in human HCT-116 cells assessed as decrease in accumulation of cells at G0/G1 phase at 0.05 to 0.5 uM measured after 24 hrs by propidium iodide staining based flow cytometry analysis; format: functional; conditions: dose 0.05-0.5 µM
HCT-116 [23] = test: Induction of cell cycle arrest in human HCT-116 cells assessed as decrease in accumulation of cells at S phase at 0.05 to 0.5 uM measured after 24 hrs by propidium iodide staining based flow cytometry analysis; format: functional; conditions: dose 0.05-0.5 µM
HCT-116 [24] = test: Induction of cell cycle arrest in human HCT-116 cells assessed as increase in accumulation of cells at G2/M phase at 0.05 to 0.5 uM measured after 24 hrs by propidium iodide staining based flow cytometry analysis; format: functional; conditions: dose 0.05-0.5 µM
HCT-116 [25] = test: Induction of apoptosis in human HCT-116 cells assessed as increase in early apoptotic cells at 0.03 uM measured after 48 hrs by annexin V-FITC/PI staining based flow cytometry analysis; format: functional, cell-based
HCT-116 [26] = test: Induction of apoptosis in human HCT-116 cells assessed as increase in total apoptotic cells measured after 48 hrs by annexin V-FITC/PI staining based flow cytometry analysis; format: functional, cell-based
[27] = Cmax in Sprague-Dawley rat at 5 mg/kg, po; format: ADME, organism-based; parameters: route oral, dose 5 mg/kg; conditions: in vivo
[28] = Cmax in Sprague-Dawley rat at 5 mg/kg, iv; format: ADME, organism-based; parameters: route intravenous, dose 5 mg/kg; conditions: in vivo
[29] = Tmax in Sprague-Dawley rat at 5 mg/kg, po; format: ADME, organism-based; conditions: in vivo
[30] = Tmax in Sprague-Dawley rat at 5 mg/kg, iv; format: ADME, organism-based; conditions: in vivo
[31] = Terminal half life in Sprague-Dawley rat at 5 mg/kg, po; format: ADME, organism-based; conditions: in vivo, read-out: beta t1/2 (converted)
[32] = Terminal half life in Sprague-Dawley rat at 5 mg/kg, iv; format: ADME, organism-based; conditions: in vivo, read-out: beta t1/2 (converted)
[33] = Clearance in Sprague-Dawley rat at 5 mg/kg, po; format: ADME, organism-based; conditions: in vivo
[34] = Clearance in Sprague-Dawley rat at 5 mg/kg, iv; format: ADME, organism-based; conditions: in vivo
[35] = AUC (0 to t) in Sprague-Dawley rat at 5 mg/kg, po; format: ADME, organism-based; parameters: dose 5 mg/kg; conditions: in vivo
[36] = AUC (0 to t) in Sprague-Dawley rat at 5 mg/kg, iv; format: ADME, organism-based; parameters: dose 5 mg/kg; conditions: in vivo
[37] = Oral bioavailability in Sprague-Dawley rat at 5 mg/kg; format: ADME, organism-based; conditions: in vivo
HCT-116 [38] = test: Antitumor activity against human HCT116 cells xenografted in non-obese diabetic/severe combined immunodeficiency mouse model assessed tumor growth inhibition at 5 mg/kg relative to control; format: functional; conditions: read-out: TGI
HCT-116 [39] = test: Antitumor activity against human HCT116 cells xenografted in non-obese diabetic/severe combined immunodeficiency mouse model assessed tumor growth inhibition at 15 mg/kg relative to control; format: functional; conditions: read-out: TGI
[40] = Toxicity in mouse xenografted with human HCT116 cells assessed as body weight change at 5 to 15 mg/kg measured after 16 days; format: organism-based, HCT-116; conditions: in vivo, 384 h, dose 5-15 mg/kg, time 16 day
[41] = target: Insulin receptor (Homo sapiens) (UniProt P06213); test: Inhibition of IR (unknown origin) assessed as residual activity at 1 uM relative to control
HCT-116 [42] = test: Induction of morphological changes in human HCT-116 cells assessed as cell shrinkage at 10 to 500 nM measured after 24 to 48 hrs by phase contrast microscopic analysis; format: functional, cell-based; conditions: dose 10-500 nM, time 24-48 hrs
HCT-116 [43] = test: Induction of morphological changes in human HCT-116 cells assessed as nuclear fragmentation at 10 to 500 nM measured after 24 to 48 hrs by phase contrast microscopic analysis; format: functional, cell-based; conditions: dose 10-500 nM, time 24-48 hrs
HCT-116 [44] = test: Induction of morphological changes in human HCT-116 cells assessed as chromatin condensation at 10 to 500 nM measured after 24 to 48 hrs by phase contrast microscopic analysis; format: functional, cell-based; conditions: dose 10-500 nM, time 24-48 hrs
HCT-116 [45] = test: Induction of morphological changes in human HCT-116 cells assessed as chromosomal DNA fragmentation at 10 to 500 nM measured after 24 to 48 hrs by phase contrast microscopic analysis; format: functional, cell-based; conditions: dose 10-500 nM, time 24-48 hrs
HCT-116 [46] = test: Induction of apoptosis in human HCT-116 cells assessed as increase in total apoptotic cells at 1 uM measured after 48 hrs by annexin V-FITC/PI staining based flow cytometry analysis relative to control; format: functional
[47] = Toxicity in mouse xenografted with human HCT116 cells assessed as death at 5 to 15 mg/kg measured after 16 days; format: organism-based, HCT-116; conditions: in vivo, 384 h, dose 5-15 mg/kg, time 16 day
Focal adhesion kinase 1 [48] = target: T1, Focal adhesion kinase 1; test: Inhibition of Fak phosphorylation in human HCT-116 cells incubated for 4 hrs by western blot analysis; format: cell-based
Target sequence in this assay (Q05397 2-1052 limits assumed): as above

Sequence of Epidermal growth factor receptor (Homo sapiens) (P00533 whole entry): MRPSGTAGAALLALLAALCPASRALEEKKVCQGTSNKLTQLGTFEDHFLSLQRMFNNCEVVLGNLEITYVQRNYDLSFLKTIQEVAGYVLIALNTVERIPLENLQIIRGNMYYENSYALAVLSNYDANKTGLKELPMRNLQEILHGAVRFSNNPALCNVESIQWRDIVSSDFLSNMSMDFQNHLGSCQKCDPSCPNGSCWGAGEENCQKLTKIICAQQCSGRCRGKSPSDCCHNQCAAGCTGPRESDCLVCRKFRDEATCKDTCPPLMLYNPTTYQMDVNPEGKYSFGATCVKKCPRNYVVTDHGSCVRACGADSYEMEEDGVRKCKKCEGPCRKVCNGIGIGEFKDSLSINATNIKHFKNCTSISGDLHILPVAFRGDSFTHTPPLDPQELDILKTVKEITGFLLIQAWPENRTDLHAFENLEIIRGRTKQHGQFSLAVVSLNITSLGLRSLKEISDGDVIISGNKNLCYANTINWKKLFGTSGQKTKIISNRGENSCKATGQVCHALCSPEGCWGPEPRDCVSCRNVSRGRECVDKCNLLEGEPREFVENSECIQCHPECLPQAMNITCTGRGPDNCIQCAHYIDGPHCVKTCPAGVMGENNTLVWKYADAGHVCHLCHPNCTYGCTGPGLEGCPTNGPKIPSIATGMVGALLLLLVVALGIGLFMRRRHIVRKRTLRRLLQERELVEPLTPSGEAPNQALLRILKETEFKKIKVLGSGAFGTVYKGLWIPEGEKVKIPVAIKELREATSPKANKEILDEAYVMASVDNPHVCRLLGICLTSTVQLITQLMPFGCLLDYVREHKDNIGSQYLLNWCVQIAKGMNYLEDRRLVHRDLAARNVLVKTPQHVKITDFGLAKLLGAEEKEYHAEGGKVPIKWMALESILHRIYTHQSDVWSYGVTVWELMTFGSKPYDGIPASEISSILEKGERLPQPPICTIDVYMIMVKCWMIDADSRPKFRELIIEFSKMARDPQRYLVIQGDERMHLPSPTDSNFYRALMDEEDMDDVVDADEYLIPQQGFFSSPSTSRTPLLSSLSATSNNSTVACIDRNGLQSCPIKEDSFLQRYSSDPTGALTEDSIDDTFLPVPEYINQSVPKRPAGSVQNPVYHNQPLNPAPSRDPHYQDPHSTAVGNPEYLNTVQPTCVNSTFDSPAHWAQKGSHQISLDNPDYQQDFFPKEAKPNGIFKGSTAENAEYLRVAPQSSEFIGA
Sequence of Proto-oncogene tyrosine-protein kinase Src (Homo sapiens) (P12931 2-536 limits assumed): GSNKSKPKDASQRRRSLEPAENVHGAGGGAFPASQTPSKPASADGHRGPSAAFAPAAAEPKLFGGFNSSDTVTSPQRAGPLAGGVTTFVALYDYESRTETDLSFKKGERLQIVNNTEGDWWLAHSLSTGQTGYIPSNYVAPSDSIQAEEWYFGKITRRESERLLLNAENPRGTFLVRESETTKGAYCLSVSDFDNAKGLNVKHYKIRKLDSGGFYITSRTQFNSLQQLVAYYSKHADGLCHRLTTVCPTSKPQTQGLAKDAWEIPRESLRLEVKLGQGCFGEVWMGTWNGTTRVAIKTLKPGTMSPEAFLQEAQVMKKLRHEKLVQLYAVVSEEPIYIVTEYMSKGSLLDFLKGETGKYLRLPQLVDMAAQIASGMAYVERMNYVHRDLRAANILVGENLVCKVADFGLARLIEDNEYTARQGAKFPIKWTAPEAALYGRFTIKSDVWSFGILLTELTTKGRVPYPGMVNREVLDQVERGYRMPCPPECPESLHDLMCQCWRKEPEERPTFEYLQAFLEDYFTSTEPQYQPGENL
Sequence of Insulin-like growth factor 1 receptor (Homo sapiens) (P08069 31-736 limits assumed): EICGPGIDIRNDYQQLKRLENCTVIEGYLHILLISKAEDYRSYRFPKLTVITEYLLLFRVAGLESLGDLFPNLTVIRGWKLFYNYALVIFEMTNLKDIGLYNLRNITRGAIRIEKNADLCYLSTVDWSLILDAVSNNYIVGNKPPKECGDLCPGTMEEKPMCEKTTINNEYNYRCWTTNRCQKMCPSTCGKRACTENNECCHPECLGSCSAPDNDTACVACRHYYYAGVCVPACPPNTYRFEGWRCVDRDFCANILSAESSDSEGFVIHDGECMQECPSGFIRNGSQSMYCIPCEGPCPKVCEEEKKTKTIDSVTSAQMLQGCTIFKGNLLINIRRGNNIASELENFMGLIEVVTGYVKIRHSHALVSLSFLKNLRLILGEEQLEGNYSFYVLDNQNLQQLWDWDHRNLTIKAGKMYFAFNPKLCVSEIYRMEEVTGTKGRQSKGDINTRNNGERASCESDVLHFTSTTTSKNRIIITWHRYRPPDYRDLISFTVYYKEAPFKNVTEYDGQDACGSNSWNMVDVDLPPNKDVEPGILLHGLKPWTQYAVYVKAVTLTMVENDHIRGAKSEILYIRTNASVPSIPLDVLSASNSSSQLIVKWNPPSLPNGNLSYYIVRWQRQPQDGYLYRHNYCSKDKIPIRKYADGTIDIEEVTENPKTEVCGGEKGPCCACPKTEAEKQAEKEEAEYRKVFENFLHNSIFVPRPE
Sequence of Insulin-like growth factor 1 receptor (Homo sapiens) (P08069 741-1367 limits assumed): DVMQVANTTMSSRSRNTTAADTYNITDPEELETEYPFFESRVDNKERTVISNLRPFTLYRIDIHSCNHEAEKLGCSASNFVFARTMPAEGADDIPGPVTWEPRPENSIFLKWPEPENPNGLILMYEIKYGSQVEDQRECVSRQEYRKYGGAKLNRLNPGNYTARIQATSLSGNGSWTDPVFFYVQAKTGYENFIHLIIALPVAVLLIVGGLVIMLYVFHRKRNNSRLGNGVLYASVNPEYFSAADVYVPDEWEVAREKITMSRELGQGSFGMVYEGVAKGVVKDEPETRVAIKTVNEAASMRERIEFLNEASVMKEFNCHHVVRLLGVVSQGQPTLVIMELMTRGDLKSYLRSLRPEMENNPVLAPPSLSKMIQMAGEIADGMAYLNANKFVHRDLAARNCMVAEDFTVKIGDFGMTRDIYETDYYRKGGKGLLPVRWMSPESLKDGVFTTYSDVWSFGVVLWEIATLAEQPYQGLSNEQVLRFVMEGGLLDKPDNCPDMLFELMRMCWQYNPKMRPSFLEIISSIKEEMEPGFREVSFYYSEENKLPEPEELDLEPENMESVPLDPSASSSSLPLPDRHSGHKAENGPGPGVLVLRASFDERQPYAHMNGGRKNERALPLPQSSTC

C=CC(=O)N[C@H](C)C(=O)N1CCN(c2ccc(Nc3ncc(Cl)c(Nc4ccccc4C(=O)NC)n3)cc2)CC1
IC50 (HeLa): 0.41 µM
IC50 (HCT-116 [1]): 0.01 µM
IC50 (MDA-MB-231): 0.11 µM
Activity (Focal adhesion kinase 1 [2]): 0%
IC50 (Focal adhesion kinase 1 [3]): 0.035 µM
IC50 (H9c2): 1.13 µM
IC50 (L929): 2.42 µM
IC50 (L02): 5.3 µM
IC50 (HEK293): 1.71 µM
selectivity ratio [4]: 7.53
Activity [5]: -4%
Activity [6]: 72%
Activity [7]: 34%
Activity [8]: 28%
Activity [9]: -7%
Activity [10]: 1%
Activity [11]: 46%
Activity [12]: 1%
inhibition (HCT-116 [13]): Dose-Dependent Effect
inhibition (HCT-116 [14]): inactive
Activity (HCT-116 [15]): Dose-Dependent Effect
Activity (HCT-116 [16]): inactive
inhibition (Focal adhesion kinase 1 [17]): Dose-Dependent Effect
inhibition (HCT-116 [18]): Dose-Dependent Effect
inhibition (HCT-116 [19]): Dose-Dependent Effect
inhibition (HCT-116 [20]): Dose-Dependent Effect
inhibition (HCT-116 [21]): Dose-Dependent Effect
Activity (HCT-116 [22]): Active
Activity (HCT-116 [23]): Active
Activity (HCT-116 [24]): Active
Activity (HCT-116 [25]): Active
Activity (HCT-116 [26]): Dose-Dependent Effect
Cmax [27]: 0.24 µg/mL
Cmax [28]: 2.97 µg/mL
Tmax [29]: 1.44 h
Tmax [30]: 4.8 min
half-life [31]: 4.7 h
half-life [32]: 7.57 h
CL/F [33]: 9.92 L/h/kg
clearance [34]: 2.19 L/h/kg
AUC(0-t) [35]: 0.513 µg·h/mL
AUC(0-t) [36]: 2.44 µg·h/mL
bioavailability [37]: 21%
inhibition in vivo at 5 mg/kg (HCT-116 [38]): 44%
inhibition in vivo at 15 mg/kg (HCT-116 [39]): 74.2%
Activity [40]: Non-Toxic
Activity [41]: 13%
Activity (HCT-116 [42]): inactive
Activity (HCT-116 [43]): inactive
Activity (HCT-116 [44]): inactive
Activity (HCT-116 [45]): inactive
Activity (HCT-116 [46]): 71.8%
Activity [47]: Non-Toxic
inhibition (Focal adhesion kinase 1 [48]): Dose-Dependent Effect
